{"source": "paper PMC7162861", "about": "“Synthesis, cytotoxicity, pharmacokinetic profile, binding with DNA and BSA of new imidazo[1,2-a]pyrazine-benzo[d]imidazol-5-yl hybrids” (Scientific Reports, 2020)", "key": {"UACC-257": {"tested_on": "UACC-257", "experiment": "NCI cytotoxicity screen, Melanoma panel", "type": "cell-based", "method": "(§1) Cytotoxicity was performed at National Cancer Institute (NCI), Bethesda, USA as per their protocols."}, "MDA-MB-435": {"tested_on": "MDA-MB-435", "experiment": "NCI cytotoxicity screen, Melanoma panel", "type": "cell-based", "conditions": "MDA-MB-435", "method": "as §1"}, "SK-MEL-2": {"tested_on": "SK-MEL-2", "experiment": "NCI cytotoxicity screen, Melanoma panel", "type": "cell-based", "method": "as §1"}, "SK-MEL-28": {"tested_on": "SK-MEL-28", "experiment": "NCI cytotoxicity screen, Melanoma panel", "type": "cell-based", "method": "as §1"}, "MALME-3M": {"tested_on": "MALME-3M", "experiment": "NCI cytotoxicity screen, Melanoma panel", "type": "cell-based", "method": "as §1"}, "SK-MEL-5": {"tested_on": "SK-MEL-5", "experiment": "NCI cytotoxicity screen, Melanoma panel", "type": "cell-based", "method": "as §1"}, "[1]": {"experiment": "Experimental log P, shake-flask method", "type": "physicochemical", "conditions": "n-octanol/phosphate buffer pH 7.4, read-out: Exp. Log P", "method": "Partition coefficients or experimental log P values of all synthesized compounds (9–23, 30 and 31) were calculated using the shake-flask method. Log P values were determined using n-octanol and phosphate buffer (pH = 7.4) at 10:1 ratio of volumes. Stock solutions (10^−3 M) of compounds were prepared in DMSO. Glass vials were used to make final solutions i.e. stock solution (250 µL) and phosphate buffer (125 µL). To record the absorbance, wavelength was selected based on λmax of the respective compound. Initial absorbance (Ai) for every compound was noted consuming the stock solution in the buffer phase. Now added n-octanol to every vial and shaken well using a mechanical shaker for 50 minutes. To get separation of both phases, glass vials were centrifuged for 35 min. at 2500 rpm. Then, the layer of octanol was separated from glass vial. The final absorbance (Af) of each compound was recorded by using the buffer layer. The values of P for compounds were determined by the following equation (Eq. 8):8 P=Ai−Af/Af×Vw/Vo"}, "PC-3": {"tested_on": "PC-3", "experiment": "NCI cytotoxicity screen, Prostate Cancer panel", "type": "cell-based, human", "conditions": "five dose 0.01–100 µM", "method": "as §1"}, "DU-145": {"tested_on": "DU-145", "experiment": "NCI cytotoxicity screen, Prostate Cancer panel", "type": "cell-based, human", "method": "as §1"}, "UO-31": {"tested_on": "UO-31", "experiment": "NCI cytotoxicity screen, Renal Cancer panel", "type": "cell-based", "method": "as §1"}, "RXF 393": {"tested_on": "RXF 393", "experiment": "NCI cytotoxicity screen, Renal Cancer panel", "type": "cell-based", "method": "as §1"}, "SN12C": {"tested_on": "SN12C", "experiment": "NCI cytotoxicity screen, Renal Cancer panel", "type": "cell-based", "method": "as §1"}, "CAKI-1": {"tested_on": "CAKI-1", "experiment": "NCI cytotoxicity screen, Renal Cancer panel", "type": "cell-based", "method": "as §1"}, "ACHN": {"tested_on": "ACHN", "experiment": "NCI cytotoxicity screen, Renal Cancer panel", "type": "cell-based", "method": "as §1"}, "HL-60(TB)": {"tested_on": "HL-60(TB)", "experiment": "NCI cytotoxicity screen, Leukemia panel", "type": "cell-based", "method": "as §1"}, "SR": {"tested_on": "SR", "experiment": "NCI cytotoxicity screen, Leukemia panel", "type": "cell-based", "method": "as §1"}, "CCRF-CEM": {"tested_on": "CCRF-CEM", "experiment": "NCI cytotoxicity screen, Leukemia panel", "type": "cell-based", "method": "as §1"}, "RPMI-8226": {"tested_on": "RPMI-8226", "experiment": "NCI cytotoxicity screen, Leukemia panel", "type": "cell-based", "conditions": "for GI50: RPMI-8226, RPMI-8226", "method": "as §1"}, "K-562": {"tested_on": "K-562", "experiment": "NCI cytotoxicity screen, Leukemia panel", "type": "cell-based", "method": "as §1"}, "MOLT-4": {"tested_on": "MOLT-4", "experiment": "NCI cytotoxicity screen, Leukemia panel", "type": "cell-based", "conditions": "Homo sapiens, MOLT-4", "method": "as §1"}, "[2]": {"conditions": "Homo sapiens, five dose 0.01–100 µM"}, "[3]": {"conditions": "Homo sapiens, five dose 0.01–100 µM, read-out: LC50 (the source's name)"}, "[4]": {"conditions": "Homo sapiens, read-out: Percent growth inhibition"}}}
{"smiles": "c1cn2cc(-c3ccc4ncn(C5CCCCC5)c4c3)nc(-c3ccc4c(c3)ncn4C3CCCCC3)c2n1", "note": "[Compound 31, 8-(1-cyclohexyl-1H-benzo[d]imidazol-5-yl)-6-(1-cyclohexyl-1H-benzo[d]imidazol-6-yl)imidazo[1,2-a]pyrazine]", "values": [{"measurement": "GI50", "setting": "UACC-257; Homo sapiens", "value": 2100, "unit": "nM"}, {"measurement": "LC50", "setting": "UACC-257; [2]", "value": 6240, "unit": "nM"}, {"measurement": "TGI", "setting": "UACC-257; five dose 0.01–100 µM", "value": 3620, "unit": "nM"}, {"measurement": "GI50", "setting": "MDA-MB-435; Homo sapiens", "value": 1770, "unit": "nM"}, {"measurement": "CC50", "setting": "MDA-MB-435; [3]", "value": 7110, "unit": "nM"}, {"measurement": "TGI", "setting": "MDA-MB-435; five dose 0.01–100 µM", "value": 3550, "unit": "nM"}, {"measurement": "GI50", "setting": "SK-MEL-2; Homo sapiens", "value": 1740, "unit": "nM"}, {"measurement": "CC50", "setting": "SK-MEL-2; [3]", "value": 6450, "unit": "nM"}, {"measurement": "TGI", "setting": "SK-MEL-2; five dose 0.01–100 µM", "value": 3350, "unit": "nM"}, {"measurement": "GI50", "setting": "SK-MEL-28; Homo sapiens", "value": 1810, "unit": "nM"}, {"measurement": "CC50", "setting": "SK-MEL-28; [3]", "value": 6430, "unit": "nM"}, {"measurement": "TGI", "setting": "SK-MEL-28; five dose 0.01–100 µM", "value": 3410, "unit": "nM"}, {"measurement": "GI50", "setting": "MALME-3M; Homo sapiens, Malme-3M", "value": 2110, "unit": "nM"}, {"measurement": "CC50", "setting": "MALME-3M; Homo sapiens, MALME-3M, five dose 0.01–100 µM, read-out: LC50 (the source's name)", "value": 6680, "unit": "nM"}, {"measurement": "TGI", "setting": "MALME-3M; MALME-3M, five dose 0.01–100 µM", "value": 3750, "unit": "nM"}, {"measurement": "GI50", "setting": "SK-MEL-5; Homo sapiens", "value": 1490, "unit": "nM"}, {"measurement": "CC50", "setting": "SK-MEL-5; [3]", "value": 5390, "unit": "nM"}, {"measurement": "TGI", "setting": "SK-MEL-5; five dose 0.01–100 µM", "value": 2830, "unit": "nM"}, {"measurement": "logP", "setting": "[1]", "value": 1.77}, {"measurement": "GI50", "setting": "PC-3; Homo sapiens", "value": 1700, "unit": "nM"}, {"measurement": "TGI", "setting": "PC-3", "value": 3930, "unit": "nM"}, {"measurement": "GI50", "setting": "DU-145; Homo sapiens", "value": 1770, "unit": "nM"}, {"measurement": "TGI", "setting": "DU-145; five dose 0.01–100 µM", "value": 3280, "unit": "nM"}, {"measurement": "GI50", "setting": "UO-31; Homo sapiens", "value": 1490, "unit": "nM"}, {"measurement": "CC50", "setting": "UO-31; [3]", "value": 5460, "unit": "nM"}, {"measurement": "TGI", "setting": "UO-31; five dose 0.01–100 µM", "value": 2850, "unit": "nM"}, {"measurement": "GI50", "setting": "RXF 393; Homo sapiens", "value": 1510, "unit": "nM"}, {"measurement": "CC50", "setting": "RXF 393; [3]", "value": 5940, "unit": "nM"}, {"measurement": "TGI", "setting": "RXF 393; five dose 0.01–100 µM", "value": 2990, "unit": "nM"}, {"measurement": "GI50", "setting": "SN12C; Homo sapiens", "value": 2050, "unit": "nM"}, {"measurement": "CC50", "setting": "SN12C; [3]", "value": "> 1000", "unit": "nM"}, {"measurement": "TGI", "setting": "SN12C; five dose 0.01–100 µM", "value": 4530, "unit": "nM"}, {"measurement": "TGI", "setting": "CAKI-1; CAKI-1, five dose 0.01–100 µM", "value": 2950, "unit": "nM"}, {"measurement": "GI50", "setting": "CAKI-1; Homo sapiens, CAKI-1", "value": 1460, "unit": "nM"}, {"measurement": "inhibition at 10 µM", "setting": "CAKI-1; Homo sapiens, CAKI-1, read-out: Percent growth inhibition", "value": 82.8, "unit": "%"}, {"measurement": "CC50", "setting": "CAKI-1; Homo sapiens, CAKI-1, five dose 0.01–100 µM, read-out: LC50 (the source's name)", "value": 5970, "unit": "nM"}, {"measurement": "GI50", "setting": "ACHN; Homo sapiens", "value": 1680, "unit": "nM"}, {"measurement": "CC50", "setting": "ACHN; [3]", "value": 5610, "unit": "nM"}, {"measurement": "TGI", "setting": "ACHN; five dose 0.01–100 µM", "value": 3070, "unit": "nM"}, {"measurement": "TGI", "setting": "HL-60(TB); HL-60(TB), five dose 0.01–100 µM", "value": 4570, "unit": "nM"}, {"measurement": "GI50", "setting": "HL-60(TB); Homo sapiens, HL-60", "value": 1840, "unit": "nM"}, {"measurement": "CC50", "setting": "HL-60(TB); Homo sapiens, HL-60(TB), five dose 0.01–100 µM, read-out: LC50 (the source's name)", "value": "> 1000", "unit": "nM"}, {"measurement": "GI50", "setting": "SR; Homo sapiens", "value": 2870, "unit": "nM"}, {"measurement": "CC50", "setting": "SR; [3]", "value": "> 1000", "unit": "nM"}, {"measurement": "inhibition at 10 µM", "setting": "SR; [4]", "value": 97.5, "unit": "%"}, {"measurement": "TGI", "setting": "SR; five dose 0.01–100 µM", "value": ">1000", "unit": "nM"}, {"measurement": "GI50", "setting": "CCRF-CEM; Homo sapiens", "value": 1690, "unit": "nM"}, {"measurement": "CC50", "setting": "CCRF-CEM; [3]", "value": "> 1000", "unit": "nM"}, {"measurement": "inhibition at 10 µM", "setting": "CCRF-CEM; [4]", "value": 95.7, "unit": "%"}, {"measurement": "TGI", "setting": "CCRF-CEM; five dose 0.01–100 µM", "value": 6080, "unit": "nM"}, {"measurement": "GI50", "setting": "RPMI-8226; Homo sapiens, five dose", "value": 806, "unit": "nM"}, {"measurement": "GI50", "setting": "RPMI-8226; [2]", "value": 800, "unit": "nM"}, {"measurement": "CC50", "setting": "RPMI-8226; Homo sapiens, RPMI-8226, five dose 0.01–100 µM, read-out: LC50 (the source's name)", "value": "> 1000", "unit": "nM"}, {"measurement": "TGI", "setting": "RPMI-8226; RPMI-8226, five dose 0.01–100 µM", "value": 3990, "unit": "nM"}, {"measurement": "GI50", "setting": "K-562; Homo sapiens, K562", "value": 2570, "unit": "nM"}, {"measurement": "CC50", "setting": "K-562; Homo sapiens, K562, K-562, five dose 0.01–100 µM, read-out: LC50 (the source's name)", "value": "> 1000", "unit": "nM"}, {"measurement": "TGI", "setting": "K-562; K-562, five dose 0.01–100 µM", "value": ">1000", "unit": "nM"}, {"measurement": "GI50", "setting": "MOLT-4", "value": 1640, "unit": "nM"}]}
